Results published in US6806276B2, “2-oxoquinoline compounds and pharmaceutical uses thereof” (Japan Tobacco Inc., priority 1999, dated 2004).
Where two headings read alike, the source gives them in different places.

Columns and labels:
[1] = biological target: T1, human central type cannabinoid receptor (hCB1) (Homo sapiens, UniProt P21554); experiment: Binding assay (in vitro), [3H]Win55212-2 displacement, membrane fractions of human CB1-CHO; settings: hCB1 expressed in CHO cells, [3H]Win55212-2 2 nM, 30° C. 90 minutes
T1 construct: expressed in transfected cells; host or cells: CHO cells

[2] = biological target: T2, human peripheral type cannabinoid receptor (hCB2) (Homo sapiens, UniProt P34972); experiment: Binding assay (in vitro), [3H]Win55212-2 displacement, membrane fractions of human CB2-CHO; settings: for Ki: hCB2 expressed in CHO cells, [3H]Win55212-2 2 nM, 30° C. 90 minutes
T2 construct: expressed in transfected cells; host or cells: CHO cells

[3] = read-out: Ki value Central type receptor (C)
[4] = Ki value Peripheral type receptor (S)
[5] = indicator of selectivity for peripheral type receptors
[6] = read-out: Ki value Peripheral type receptor (S)
[7] = Ki value Central type receptor (C)

T1 sequence (P21554 whole entry): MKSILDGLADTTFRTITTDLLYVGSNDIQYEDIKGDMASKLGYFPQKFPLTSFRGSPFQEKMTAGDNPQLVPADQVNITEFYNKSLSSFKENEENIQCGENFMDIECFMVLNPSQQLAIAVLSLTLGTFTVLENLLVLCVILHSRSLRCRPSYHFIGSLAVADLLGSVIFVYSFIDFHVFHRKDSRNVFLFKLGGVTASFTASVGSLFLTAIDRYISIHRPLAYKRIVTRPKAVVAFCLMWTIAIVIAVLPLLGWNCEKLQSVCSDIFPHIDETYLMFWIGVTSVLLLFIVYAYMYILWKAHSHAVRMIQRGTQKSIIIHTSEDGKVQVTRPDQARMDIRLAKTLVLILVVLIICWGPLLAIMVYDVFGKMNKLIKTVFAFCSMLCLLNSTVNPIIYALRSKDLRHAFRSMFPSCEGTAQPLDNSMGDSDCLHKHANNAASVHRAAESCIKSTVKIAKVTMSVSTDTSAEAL
T2 sequence (P34972 whole entry): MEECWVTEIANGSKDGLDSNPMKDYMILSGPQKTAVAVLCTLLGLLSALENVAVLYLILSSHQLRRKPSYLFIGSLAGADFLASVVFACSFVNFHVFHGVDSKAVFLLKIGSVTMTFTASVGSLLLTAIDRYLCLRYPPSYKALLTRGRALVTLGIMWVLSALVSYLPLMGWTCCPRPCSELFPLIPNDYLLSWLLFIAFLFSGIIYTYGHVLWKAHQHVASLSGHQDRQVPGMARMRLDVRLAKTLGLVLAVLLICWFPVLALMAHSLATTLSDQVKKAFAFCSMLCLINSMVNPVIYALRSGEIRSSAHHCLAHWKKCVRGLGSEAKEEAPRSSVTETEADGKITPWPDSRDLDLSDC

Ki [2, 6] [nM]	Compound	Ki [1, 3] [nM]	Ki [2, 4] [nM]	C/S (Ki central type receptors / Ki peripheral type receptors) [2, 5]	Ki [1, 7] [nM]	C/S (Ki central type receptors / Ki peripheral type receptors) [2]
–	CCOc1c(OC)ccc2cc(C(=O)NCc3ccc4c(c3)OCO4)c(=O)[nH]c12 [Example 3-35, 8-ethoxy-7-methoxy-2-oxo-1,2-dihydroquinoline-3-carboxylic acid (3,4-methylenedioxybenzyl) amide]	409	0.053	7713	–	–
0.062	CCOc1c(OC)ccc2cc(CN3CCOCC3)c(=O)[nH]c12 [Example 7-3, 8-ethoxy-7-methoxy-3-morpholinomethyl-2-oxo-1,2-dihydroquinoline]	666	–	10735	–	–
–	CCCCCOc1c(OC)ccc2cc(C(=O)NCc3ccc4c(c3)OCO4)c(=O)n(C)c12 [Example 3-42, 1-methyl-7-methoxy-2-oxo-8-pentyloxy-1,2-dihydroquinoline-3-carboxylic acid (3,4-methylenedioxybenzyl) amide]	315	0.22	1430	–	–
–	CCCCCOc1cc2cc(C(=O)NCCN3CCOCC3)c(=O)[nH]c2cc1OC [Example 3-34, 7-methoxy-2-oxo-6-pentyloxy-1,2-dihydroquinoline-3-carboxylic acid (2-morpholinoethyl) amide]	–	0.011	15672	–	–
0.17	CCOc1c(OC)ccc2cc(CN(C)C)c(=O)[nH]c12 [Example 7-1, 3-dimethyl aminomethyl-8-ethoxy-7-methoxy-2-oxo-1,2-dihydroquinoline]	3640	–	21432	–	–
–	CCCCCOc1cc2cc(C(=O)O)c(=O)n(C)c2cc1OC [Example 2-7, 1-methyl-7-methoxy-2-oxo-6-pentyloxy-1,2-dihydroquinoline-3-carboxylic acid]	381	0.42	908	–	–
–	CCCCCOc1c(OC)ccc2cc(C(=O)NCCc3ccc(O)cc3)c(=O)[nH]c12 [Example 3-7, 7-methoxy-2-oxo-8-pentyloxy-1,2-dihydroquinoline-3-carboxylic acid [2-(4-hydroxyphenyl)ethyl]amide]	–	0.48	150	72	–
0.055	CCOc1c(OC)ccc2cc(CO)c(=O)[nH]c12 [Example 5-2, 8-ethoxy-3-hydroxymethyl-7-methoxy-2-oxo-1,2-dihydroquinoline]	122	–	2219	–	–
–	CCCCCOc1cc2cc(C(=O)NCCc3ccc(F)cc3)c(=O)[nH]c2cc1OC [Example 3-32, 7-methoxy-2-oxo-6-pentyloxy-1,2-dihydroquinoline-3-carboxylic acid [2-(4-fluorophenyl)ethyl]amide]	2400	0.036	66604	–	–
–	CCOc1c(OC)ccc2cc(C(=O)NCCc3ccncc3)c(=O)[nH]c12 [Example 3-6, 8-ethoxy-7-methoxy-2-oxo-1,2-dihydroquinoline-3-carboxylic acid (2-pyridine-4-ylethyl)amide]	609	–	–	–	–
–	CCCCOc1c(OC)ccc2cc(CNC(=O)Cc3ccc(O)cc3)c(=O)[nH]c12 [Example 8-2, N-[(8-butoxy-7-methoxy-2-oxo-1,2-dihydroquinoline-3-yl)methyl]-(4-hydroxyphenyl)acetamide]	727	0.27	2692	–	–
–	CCCCCOc1ccc2cc(C(=O)NCCc3ccc(F)cc3)c(=O)[nH]c2c1OCCCCC [Example 3-46, 7,8-dipentyloxy-2-oxo-1,2-dihydroquinoline-3-carboxylic acid [2-(4-fluorophenyl)ethyl]amide]	–	0.026	8776	228	–
8.9	CCCCCOc1c(OC)ccc2cc(C(=O)O)c(=O)[nH]c12 [Example 2-1, 7-methoxy-2-oxo-8-pentyloxy-1,2-dihydroquinoline-3-carboxylic acid]	4330	–	487	–	–
0.032	CCCOc1c(OC)ccc2cc(C(=O)O)c(=O)[nH]c12 [Example 2-4, 7-methoxy-2-oxo-8-propoxy-1,2-dihydroquinoline-3-carboxylic acid]	905	–	28273	–	–
–	CCCCCOc1cc2cc(C(=O)NCc3ccc4c(c3)OCO4)c(=O)n(C)c2cc1OC [Example 3-45, 1-methyl-7-methoxy-2-oxo-6-pentyloxy-1,2-dihydroquinoline-3-carboxylic acid (3,4-methylenedioxybenzyl)amide]	381	0.032	11902	–	–
–	CCCCCOc1c(OC)ccc2cc(C(=O)NCCc3ccc(F)cc3)c(=O)n(C)c12 [Example 3-36, 1-methyl-7-methoxy-2-oxo-8-pentyloxy-1,2-dihydroquinoline-3-carboxylic acid [2-(4-fluorophenyl)ethyl]amide]	183	0.021	8695	–	–
–	CCCCCOc1c(OC)ccc2cc(C(=O)NCCc3ccc(F)cc3)c(=O)[nH]c12 [Example 3-8, 7-methoxy-2-oxo-8-pentyloxy-1,2-dihydroquinoline-3-carboxylic acid [2-(4-fluorophenyl)ethyl]amide]	–	0.019	4275	81	–
0.034	CCOc1c(OC)ccc2cc(COC(=O)Nc3ccncc3)c(=O)[nH]c12 [Example 6-2, N-pyridine-4-ylcarbamic acid (8-ethoxy-7-methoxy-2-oxo-1,2-dihydroquinoline-3-yl)methyl ester]	437	–	12866	–	–
–	CCCCCOc1cc2cc(C(=O)O)c(=O)[nH]c2cc1OC [Example 2-5, 7-methoxy-2-oxo-6-pentyloxy-1,2-dihydroquinoline-3-carboxylic acid]	434	0.2	–	–	–
–	CCCCCOc1c(OC)ccc2cc(C(=O)NCCc3ccc(O)c(OC)c3)c(=O)[nH]c12 [Example 3-21, 7-methoxy-2-oxo-8-pentyloxy-1,2-dihydroquinoline-3-carboxylic acid [2-(4-hydroxy-3-methoxyphenyl)ethyl]amide]	162	0.97	167	–	–
–	CCCCCOc1c(OC)ccc2cc(C(=O)NCc3ccc(F)cc3)c(=O)[nH]c12 [Example 3-25, 7-methoxy-2-oxo-8-pentyloxy-1,2-dihydroquinoline-3-carboxylic acid (4-fluorobenzyl)amide]	444	1.29	344	–	–
–	CCOc1c(OC)ccc2cc(C(=O)NCCc3ccc(F)cc3)c(=O)[nH]c12 [Example 3-18, 8-ethoxy-7-methoxy-2-oxo-1,2-dihydroquinoline-3-carboxylic acid [2-(4-fluorophenyl)ethyl]amide]	1750	7.1	247	–	–
–	CCCCCOc1c(OC)ccc2cc(C(=O)NCCc3ccncc3)c(=O)[nH]c12 [Example 3-1, 7-methoxy-2-oxo-8-pentyloxy-1,2-dihydroquinoline-3-carboxylic acid (2-pyridine-4-ylethyl)amide]	–	0.13 ± 0.05	–	49	372
–	CCCCCOc1cc2cc(C(=O)NCc3ccc4c(c3)OCO4)c(=O)[nH]c2cc1OC [Example 3-33, 7-methoxy-2-oxo-6-pentyloxy-1,2-dihydroquinoline-3-carboxylic acid (3,4-methylenedioxybenzyl)amide]	273	1.06	258	–	–
–	CCCCCOc1c(OC)ccc2cc(C(=O)NCCc3cccc(F)c3)c(=O)[nH]c12 [Example 3-20, 7-methoxy-2-oxo-8-pentyloxy-1,2-dihydroquinoline-3-carboxylic acid [2-(3-fluorophenyl)ethyl]amide]	–	0.41	–	78	191
–	CCCCCOc1cc2cc(C(=O)NCCc3ccc(F)cc3)c(=O)n(C)c2cc1OC [Example 3-43, 1-methyl-7-methoxy-2-oxo-6-pentyloxy-1,2-dihydroquinoline-3-carboxylic acid [2-(4-fluorophenyl)ethyl]amide]	864	0.043	20093	–	–
–	CCCCCOc1c(OC)ccc2cc(C(=O)O)c(=O)n(C)c12 [Example 2-6, 1-methyl-7-methoxy-2-oxo-8-pentyloxy-1,2-dihydroquinoline-3-carboxylic acid]	770	0.13	5923	–	–

Compound	Ki [2, 6] [nM]	Ki [1, 3] [nM]	Ki [2, 4] [nM]	C/S (Ki central type receptors / Ki peripheral type receptors) [2, 5]	Ki [1, 7] [nM]	C/S (Ki central type receptors / Ki peripheral type receptors) [2]
CCCCOc1c(OC)ccc2cc(CNC(=O)Nc3ccc(F)cc3)c(=O)[nH]c12 [Example 8-1, N-[(8-butoxy-7-methoxy-2-oxo-1,2-dihydroquinoline-3-yl)methyl]-N′-(4-fluorophenyl)urea]	0.44	440	–	1000	–	–
CCCCOc1c(OC)ccc2cc(CO)c(=O)[nH]c12 [Example 5-1, 8-butoxy-3-hydroxy methyl-7-methoxy-2-oxo-1,2-dihydroquinoline]	0.45	686	–	–	–	–
CCCCOc1c(OC)ccc2cc(C(=O)O)c(=O)[nH]c12 [Example 2-2, 8-butoxy-7-methoxy-2-oxo-1,2-dihydroquinoline-3-carboxylic acid]	0.77	3250	–	42172	–	–
